In patent publication US8835484B2, “Naphthocyanines for use as contrast agents” (Alamedics GmbH & Co. KG, priority 2010, dated 2014):
Structures can show the parent of a compound that is named as a salt.

Legend:
[1] = Fluorescence quantum yield; type: physicochemical; conditions: CHCl3; Reference: S-13 with Φ=1.00
Text: IR spectra: Perkin Elmer Spectrum BX II, using a diamond anvil cell; UV/Vis spectra: Varian Cary 5000 and Bruins Omega 20; fluorescence spectra: Varian Eclispe; NMR spectroscopy: Varian Vnmrs 600 (600 MHz, 400 MHz, 200 MHz); mass spectrometry: Thermo Finnigan LQT FT.

[2] = Solid cyanine dye stability comparison; type: physicochemical; conditions: storage
Text: Decomposition of the solid dye results in a red coloration of the solid and the solution. Carboxylic acid esters, especially methyl ester, are particularly sensitive in addition to the bromides.

lens capsule = assay: Dye tests on porcine eyes (lens capsule staining); design: key: +++: visually assessed very strong coloration; ++: good coloration; +: satisfactory coloration; −: weak or absent coloration; conditions: incubated, rinsed after one minute
Protocol: For the dye test, in each case 5 mg dye was dissolved in 500 μL ethanol and diluted to 2 mL with BSS Plus solution as the stock solution, and then correspondingly further diluted. As an alternative, one can prepare stock solutions of the dye by dissolving, for example, 5 mg dye in 1 mL distilled water, adding 7 mL BSS solution and then combining with 1 mL NaCl solution having an osmolality of 620 (approximately 2%) in order to restore the original osmolality of the BSS solution (308). This stock solution can be correspondingly further diluted with BSS solution as required. Enucleated porcine eyes were used having a post mortem time period of a few hours. To dye the lens capsule, the cornea was first removed. Thereafter, the iris was resected and the capsular support was severed. The lens with intact lens capsule was removed and placed in a bowl filled with BSS. The lenses were thereafter incubated with the dyes according to the invention at various concentrations and then rinsed after one minute. The dye pattern was photographically documented, whereby the coloration was assessed without additional illumination, and fluorescence was assessed with illumination (Xenon lamp, halogen lamp with typical endoillumination source and fiber optics). The lens capsule is a very good model for dyeing due to the fact that it is a basal membrane, as is the ILM of the retina. Both structures are important target structures in eye surgery.

Compound	Fluorescence quantum yield [1]	Stability [2]	coloration of lens capsule (lens capsule; dye concentration 0.5%)	coloration of lens capsule (lens capsule; dye concentration 1.0)	melting point [°C]	coloration of lens capsule (lens capsule; dye concentration 0.0025%)	coloration of lens capsule (lens capsule; dye concentration 0.025%)	coloration of lens capsule (lens capsule; dye concentration 0.25%)
3,3′-Di-(5-bromodecyl)-1,1,1′,1′-tetramethyl-1H-dibenzo[e]indocarbocyanine bromide [Dye 3x]	0.10	No decomposition after 4 months						
3,3′-Di-(5-bromopentyl)-1,1,1′,1′-tetramethyl-1H-dibenzo[e]indocarbocyanine bromide [Dye 3y]	0.15	No decomposition after 4 months						
3,3′-Di-(5-brompentyl)-1,1,1′,1′-tetramethyl-1H-disulfobenzo[e]indocarbocyanine bromide [Dye 6h]	0.19	Decomposition after a few days	decomposed	decomposed				
3,3′-Di-(10-bromodecyl)-1,1,1′,1′-tetramethyl-1H-disulfobenzo[e]indocarbocyanine bromide [Dye 6i]	0.13	Decomposition after 2 days	decomposed	decomposed				
CC1(C)C(/C=C/C=C2\N(CCCCS(=O)(=O)O)c3ccc4ccccc4c3C2(C)C)=[N+](CCCCS(=O)(=O)[O-])c2ccc3ccccc3c21 (as salt: bromide) [Dye 3t, 3,3′-Di-(4-sulfobutyl)-1,1,1′,1′-tetramethyl-1H-dibenzo[e]indocarbocyanine bromide]					> 250			
CC1(C)C(/C=C/C=C2\N(CCCCS(=O)(=O)[O-])c3ccc4c(S(=O)(=O)O)cccc4c3C2(C)C)=[N+](CCCCS(=O)(=O)O)c2ccc3c(S(=O)(=O)O)cccc3c21 (as salt: bromide) [Dye 6a, 3,3′-Di-(4-sulfobutyl)-1,1,1′,1′-tetramethyl-1H-disulfobenzo[e]indocarbocyanine bromide]					> 150			
CC1(C)C(/C=C/C=C2\N(CCC(=O)O)c3ccc4ccccc4c3C2(C)C)=[N+](CCC(=O)O)c2ccc3ccccc3c21.[Br-] (hydrate or solvate) [Dye 3a, 3,3′-Di-(2-carboxyethyl)-1,1,1′,1′-tetramethyl-1H-dibenzo[e]indocarbocyanine bromide]					199			
COC(=O)CCN1C(=CC=CC2=[N+](CCC(=O)OC)c3ccc4ccccc4c3C2(C)C)C(C)(C)c2c1ccc1ccccc21.[Br-] [Dye 3h, 3,3′-Di-(2-methoxycarbonylethyl)-1,1,1′,1′-tetramethyl-1H-dibenzo[e]indocarbocyanine bromide]	0.24		+++			−	+	++
COC(=O)CCCCN1C(=CC=CC2=[N+](CCCCC(=O)OC)c3ccc4ccccc4c3C2(C)C)C(C)(C)c2c1ccc1ccccc21.[Br-] [Dye 3i, 3,3′-Di-(4-methoxycarbonylbutyl)-1,1,1′,1′-tetramethyl-1H-dibenzo[e]indocarbocyanine bromide]	0.40		++			−	+	+
COC(=O)CCCCCCCCCN1C(=CC=CC2=[N+](CCCCCCCCCC(=O)OC)c3ccc4ccccc4c3C2(C)C)C(C)(C)c2c1ccc1ccccc21.[Br-] [Dye 3j, 3,3′-Di-(9-methoxycarbonylnonyl)-1,1,1′,1′-tetramethyl-1H-dibenzo[e]indocarbocyanine bromide]	0.47		++			−	−	+
COC(=O)CCCCCCCCCCN1C(=CC=CC2=[N+](CCCCCCCCCCC(=O)OC)c3ccc4ccccc4c3C2(C)C)C(C)(C)c2c1ccc1ccccc21.[Br-] [Dye 3k, 3,3′-Di-(10-methoxycarbonyldecyl)-1,1,1′,1′-tetramethyl-1H-dibenzo[e]indocarbocyanine bromide]	0.36		++			−	−	+
CCOC(=O)CCN1C(=CC=CC2=[N+](CCC(=O)OCC)c3ccc4ccccc4c3C2(C)C)C(C)(C)c2c1ccc1ccccc21.[Br-] [Dye 3l, 3,3′-Di-(2-ethoxycarbonylethyl)-1,1,1′,1′-tetramethyl-1H-dibenzo[e]indocarbocyanine bromide]	0.33		+++			−	+	+++
CCOC(=O)CCCN1C(=CC=CC2=[N+](CCCC(=O)OCC)c3ccc4ccccc4c3C2(C)C)C(C)(C)c2c1ccc1ccccc21.[Br-] [Dye 3m, 3,3′-Di-(3-ethoxycarbonylpropyl)-1,1,1′,1′-tetramethyl-1H-dibenzo[e]indocarbocyanine bromide]	0.61		+++			−	−	++
CCOC(=O)CCCCN1C(=CC=CC2=[N+](CCCCC(=O)OCC)c3ccc4ccccc4c3C2(C)C)C(C)(C)c2c1ccc1ccccc21.[Br-] [Dye 3n, 3,3′-Di-(4-ethoxycarbonylbutyl)-1,1,1′,1′-tetramethyl-1H-dibenzo[e]indocarbocyanine bromide]	0.43		++			−	−	+
CCOC(=O)CCCCCN1C(=CC=CC2=[N+](CCCCCC(=O)OCC)c3ccc4ccccc4c3C2(C)C)C(C)(C)c2c1ccc1ccccc21.[Br-] [Dye 3o, 3,3′-Di-(5-ethoxycarbonylpentyl)-1,1,1′,1′-tetramethyl-1H-dibenzo[e]indocarbocyanine bromide]	0.36		++			−	−	++
CC1(C)C(/C=C/C=C2\N(CCCCS(=O)(=O)O)c3ccc4ccccc4c3C2(C)C)=[N+](CCCCS(=O)(=O)[O-])c2ccc3ccccc3c21 [Dye 3t, 3,3′-Di-(4-sulfobutyl)-1,1,1′,1′-tetramethyl-1H-dibenzo[e]indocarbocyanine bromide]	0.32	No decomposition after 3 years	+++			−	+	++
CC1(C)C(=CC=CC2=[N+](CCCCCS(=O)(=O)O)c3ccc4ccccc4c3C2(C)C)N(CCCCCS(=O)(=O)O)c2ccc3ccccc3c21.[Br-] [Dye 3u, 3,3′-Di-(5-sulfopentyl)-1,1,1′,1′-tetramethyl-1H-dibenzo[e]indocarbocyanine bromide]	0.13	No decomposition after 4 months	−	+				
CC1(C)C(=CC=CC2=[N+](CCCCCCCCCCS(=O)(=O)O)c3ccc4ccccc4c3C2(C)C)N(CCCCCCCCCCS(=O)(=O)O)c2ccc3ccccc3c21.[Br-] [Dye 3v, 3,3′-Di-(10-sulfodecyl)-1,1,1′,1′-tetramethyl-1H-dibenzo[e]indocarbocyanine bromide]	0.14	No decomposition after 4 months	−	−				
CC1(C)C(/C=C/C=C2\N(CCCCS(=O)(=O)[O-])c3ccc4c(S(=O)(=O)O)cccc4c3C2(C)C)=[N+](CCCCS(=O)(=O)O)c2ccc3c(S(=O)(=O)O)cccc3c21 [Dye 6a, 3,3′-Di-(4-sulfobutyl)-1,1,1′,1′-tetramethyl-1H-disulfobenzo[e]indocarbocyanine bromide]	0.33	No decomposition after 4 months	+++	+++				
